Experimental data as given in patent publication US9415011B1, “Method for treatment of liver cancer and inhibition of metastasis with CXC-chemokine-receptor 4-targeted nanoparticle” (National Tsing Hua University, priority 2015, dated 2016).

Experiments:
HCA-1 cells [1] = assay: In vitro cytotoxicity, MTT assay; assay type: cell-based, murine; details: HCA-1, 48 hours, sorafenib 0.25 μM, AMD3100 0.2 μM
Experimental: (§1) For cytotoxicity examination of the CXCR4-targeted lipid-coated PLGA nanoparticle of the present invention, HCA-1 or JHH-7 cells were seeded in 96-well transparent plates (Costar, Ill., USA) at a density of 1000 cells/well in a medium and were incubated for 12 hours. After confluency reached 10%, the medium was replaced with RPMI-1640 media containing DOPSor, ADOPSor, free DOPA, ADOP, or DOPSor with free AMD3100 at the equivalent sorafenib concentration of 0.25 μM. […] All cells were incubated for 48 hours. After incubation for another 3 hours, MTT assay was utilized to subsequently measure the cell viability. The absorbance of the wells was measured by Multiskan (Thermo, USA) at 570 nm and background absorbance was subtracted from all data. The percentage of cell viability was calculated by normalization of all values to the control group.

JHH-7 cells [2] = assay: In vitro cytotoxicity, MTT assay; assay type: cell-based, human; details: JHH-7, 48 hours, sorafenib 0.25 μM, AMD3100 0.2 μM
Experimental: as §1

[3] = In vivo pharmacokinetics of C6 in blood; parameters: species or system C3H mice; details: 2 mg/kg, mice with orthotopic HCA-1 tumor
Experimental: To examine the pharmacokinetics profile in vivo, firstly, C6-loaded lipid-coated PLGA nanoparticle without AMD3100 modification (DOP-C6) and C6-loaded AMD3100-modified lipid-coated PLGA nanoparticle (ADOP-C6) were prepared according to the method set forth above. Then, C3H mice with orthotopic HCA-1 tumor were administered with free C6, DOP-C6 and ADOP-C6 at a dosage of 2 mg/kg. 40 μl of blood was collected from the tail artery and mixed with 10 μL of EDTA (50 mM) at different periods of time. The fluorescence intensity was measured by the plate reader (Fluoroskan Ascent FL, Thermo Scientific) at an excitation wavelength of 485 nm and an emission wavelength of 538 nm C6 concentration was normalized and calculated from a standard curve obtained by spiking known amounts of free C6 or C6-loaded nanoparticles in blood obtained from uninjected mice.

orthotopic HCA-1 tumor [4] = assay: Syngeneic orthotopic murine HCC model, sorafenib and AMD3100-modified nanoparticle; assay type: in vivo, C3H mice; details: sorafenib 50 mg/kg daily for 14 days
From the text: 4 to 6-week-old male C3H/HeNCrNarl mice (weight: 25 g) were purchased from National Laboratory Animal Center (Taipei, Taiwan). In order to create hepatocellular carcinoma model, every mouse was orthotopically injected with HCA-1 cells (10^6 cells per mouse) in liver.
On the other hand, HCA-1 cells were intrahepatic ally implanted into C3H mice to establish a syngeneic orthotopic murine HCC model. For evaluation of mean vessel density (MVD) and hypoxic induction, mice without any treatment were defined as Negative control group, while mice treated with free sorafenib alone were defined as Positive control group. Mice treated with free sorafenib and free AMD3100 were defined as Comparative. For the experimental groups, mice treated with AMD3100-modified lipid-coated nanoparticle of the present invention were defined as Experimental group 1, while mice treated with sorafenib and AMD3100-modified lipid-coated nanoparticle of the present invention together were defined as Experimental group 2.
After HCC tumors were established, mice were treated according to the above mentioned Positive control group, Comparative group, Experimental group 1, and Experimental group 2 with sorafenib given at a dose of 50 mg/kg daily for 14 days. […] On the other hand, the change in SDF1α expression as a consequence of treatment-induced hypoxia was examined.

HCA-1 cells [5] = assay: Cell viability under sorafenib with recombinant SDF1α; assay type: cell-based, murine; details: HCA-1, in the presence of sorafenib
From the text: (§2) To examine cell viability, cells without any treatment were defined as Negative control group, while cells treated with free sorafenib alone were defined as Positive control group. Meanwhile, cells treated with sorafenib in the presence of recombinant SDF1α were defined as Comparative group 1, while cells treated with free sorafenib and free AMD3100 were defined as Comparative group 2. Regarding the experimental groups, cells treated with sorafenib-loaded lipid-coated nanoparticle without AMD3100 modification were defined as Experimental group 1, while cells treated with sorafenib-loaded AMD3100-modified lipid-coated nanoparticle were defined as Experimental group 2.
(§3) To determine whether the SDF1α/CXCR4 axis mediates HCC resistance to sorafenib treatment, both murine HCC (HCA-1) and human HCC (JHH-7) cell lines were firstly exposed to recombinant SDF1α in the presence of sorafenib.

JHH-7 cells [6] = assay: as above; assay type: cell-based, human; details: JHH-7, in the presence of sorafenib
From the text: as §2, §3

orthotopic HCA-1 tumor [7] = assay: In vivo tumor uptake of fluorescence-labeled siRNA; parameters: species or system mice; details: intravenous injection, after 4 hours
Experimental: Next, the uptake of the fluorescence-labeled siRNA in orthotopic HCA-1 tumor models via intravenous injection was evaluated after 4 hours.

VEGF [8] = assay: VEGF expression by western blot; assay type: cell-based, human; details: JHH-7
From the text: (§4) Firstly, cells treated with free control siRNA were defined as Control group, while cells treated with free anti-VEGF siRNA were defined as Comparative group. Cells treated with anti-VEGF siRNA-loaded lipid-coated nanoparticle without AMD3100 modification were defined as Experimental group 1, while cells treated with anti-VEGF siRNA-loaded AMD3100-modified lipid-coated nanoparticle were defined as Experimental group 2.

VEGF [9] = assay: VEGF expression by western blot; assay type: cell-based, murine; details: HCA-1
From the text: as §4

In the case of `c1cc(CN2CCCNCCNCCCNCC2)ccc1CN1CCCNCCNCCCNCC1` [AMD3100], the “cytotoxicity / cell viability” value (HCA-1 cells [1]) is reported as “did not have a cytotoxic effect” and the “cytotoxicity / cell viability” value (JHH-7 cells [2]) is reported as “did not have a cytotoxic effect”.
With `CCN(CC)c1ccc2cc(-c3nc4ccccc4s3)c(=O)oc2c1` [free C6, coumarin 6] the “C6 in blood after 1 hour” value [3] was “cleared rapidly from the blood after 1 hour” and the “C6 in blood after 4 hours” value [3] was “almost cleared out after 4 hours”.
With `CNC(=O)c1cc(Oc2ccc(NC(=O)Nc3ccc(Cl)c(C(F)(F)F)c3)cc2)ccn1` [sorafenib, Sorafenib] the “carbonic anhydrase IX (CAIX) expression (hypoxia)” value (orthotopic HCA-1 tumor [4]) was “increase of carbonic anhydrase IX (CAIX) expression”, the “increase in SDF1α expression in HCA-1 tumor tissues” value (orthotopic HCA-1 tumor [4]) was 3 fold and the “increase in number of F4/80+ macrophages” value (orthotopic HCA-1 tumor [4]) was “over 3 fold”. The lung metastasis (orthotopic HCA-1 tumor [4]) was “Neither the Positive control group nor the Comparative group showed a reduction in metastasis formation”, the “mean vessel density (MVD)” value (orthotopic HCA-1 tumor [4]) was “significant reduction of MVD” and the tumor growth (orthotopic HCA-1 tumor [4]) was “moderate tumor growth inhibitory effect”.
For SDF1α, the cell viability (HCA-1 cells [5]) was “increased the viability” and the cell viability (JHH-7 cells [6]) was “increased the viability”.
For “free anti-VEGF siRNA: anti-VEGF siRNA with sequence 5′-AUGUGAAUGCAGACCAAAGAA-3′ (chemistry not given here)”, the “uptake of fluorescence-labeled siRNA in orthotopic HCA-1 tumor” value (orthotopic HCA-1 tumor [7]) was “intracellular uptake can hardly be detected”, the VEGF expression (VEGF [8]) was “no suppression of VEGF expression” and the VEGF expression (VEGF [9]) was “no suppression of VEGF expression”.
